Patent publication US9510598B2, “Nitrogen-containing heterocyclic compounds for plant disease control” (BAYER CROPSCIENCE AG, priority 2012, dated 2016)

Type: physicochemical
Settings: HPLC on reversed phase columns, method [a]: pH 2.7, 0.1% formic acid in water / acetonitrile, linear gradient 10% to 95% acetonitrile

Row | SMILES | log P
1 | CCn1cc(CNC(=O)C2(C)CC(c3cc(C)c4ncc(Br)cc4c3)=NO2)c(C)n1 (stereo not drawn) [compound 580] | 2.96[a]
2 | COc1cccc(CNC(=O)C2(C)CC(c3ccc4ncc(Br)cc4c3)=NO2)n1 (stereo not drawn) [compound 667] | 3.11[a]
3 | CC1(C(=O)NC2CCCCNC2=O)CC(c2ccc3ncc(Br)cc3c2)=NO1 (stereo not drawn) [compound 252] | 2.23^[a]
4 | CCC(C)N(OC)C(=O)C1(C)CC(c2ccc3ncc(Br)cc3c2)=NO1 (stereo not drawn) [compound 659] | 3.96[a]
5 | C#Cc1cnc2c(Cl)cc(C3=NOC(OC)(C(=O)NCc4cn(CCC)nc4C)C3)cc2c1 (stereo not drawn) [compound 588] | 2.80[a]
6 | CC(C)NC(=O)C1(C)CC(c2ccc3nc(C#N)c(Br)cc3c2)=NO1 (stereo not drawn) [compound 303] | 3.00[a]
7 | CC(=O)C1(C(=O)NC2CCC2)CC(c2ccc3ncc(Br)cc3c2)=NO1 (stereo not drawn) [compound 583] | 3.06[a]
8 | C#Cc1cnc2ccc(C3=NOC(C)(C(=O)NCc4cn(CC)nc4OC)C3)cc2c1 (stereo not drawn) [compound 637] | 2.35[a]
9 | C=Cc1cnc2ccc(C3=NOC(C)(C(=O)NCc4cn(CC)nc4C)C3)cc2c1 (stereo not drawn) [compound 308] | 1.95[a]
10 | C#Cc1cnc2ccc(C3=NOC(C)(C(=O)NC(CN(C)c4ccccc4)C4CC4)C3)cc2c1 (stereo not drawn) [compound 359] | 3.69[a]
11 | C#Cc1cnc2ccc(C3=NOC(C)(C(=O)NCc4nc(C)cs4)C3)cc2c1 (stereo not drawn) [compound 648] | 2.26[a]
12 | Cc1nn(C2CC2)cc1CNC(=O)C1(C)CC(c2ccc3ncc(Br)cc3c2)=NO1 (stereo not drawn) [compound 669] | 2.52[a]
13 | CN(C)CCCNC(=O)C1(C)CC(c2ccc3ncc(Br)cc3c2)=NO1 (stereo not drawn) [compound 297] | 1.23[a]
14 | CCn1cc(CNC(=O)C2(C(C)=O)CC(c3ccc4ncc(Br)cc4c3)=NO2)c(C)n1 (stereo not drawn) [compound 585] | 2.53[a]
15 | CC(C)(C)NC(=O)C1(C)CC(c2ccc3ncc(Br)cc3c2)=NO1 (stereo not drawn) [compound 319] | 3.39[a]
16 | CC(NC(=O)C1(C)CC(c2ccc3ncc(Br)cc3c2)=NO1)c1ccc(Cl)cc1 (stereo not drawn) [compound 348] | 3.87[a]
17 | Cc1cc(C2=NOC(C)(C(=O)NC(C)C)C2)cc2cc(Br)cnc12 (stereo not drawn) [compound 573] | 3.51[a]
18 | C=C(C)C1(C(=O)NCCCOCC)CC(c2ccc3ncc(Br)cc3c2)=NO1 (stereo not drawn) [compound 518] | 3.37[a]
19 | COc1cnccc1CNC(=O)C1(C)CC(c2ccc3ncc(Br)cc3c2)=NO1 (stereo not drawn) [compound 673] | 1.56[a]
20 | C#Cc1cnc2ccc(C3=NOC(C)(C(=O)NC(C)c4ccc(Cl)cc4)C3)cc2c1 (stereo not drawn) [compound 346] | 3.44[a]
21 | CC(=O)C1(C(=O)NC(C)C)CC(c2ccc3ncc(Br)cc3c2)=NO1 (stereo not drawn) [compound 281] | 2.88[a]
22 | C#Cc1cnc2ccc(C3=NOC(C)(C(=O)NCC4C5CC6CC(C5)CC4C6)C3)cc2c1 (stereo not drawn) [compound 250] | 4.46^[a]
23 | C#Cc1cnc2ccc(C3=NOC(C(=O)NC(C)C)(C(F)F)C3)cc2c1 (stereo not drawn) [compound 616] | 2.73[a]
24 | CCOCCCNC(=O)C1(C(C)=O)CC(c2ccc3ncc(Br)cc3c2)=NO1 (stereo not drawn) [compound 582] | 2.90[a]
25 | C#Cc1cnc2c(C)cc(C3=NOC(OC)(C(=O)NCc4cn(CCC)nc4C)C3)cc2c1 (stereo not drawn) [compound 610] | 2.90[a]
26 | COC1(C(=O)NCC2COC(C)(C)O2)CC(c2cc(C)c3ncc(Br)cc3c2)=NO1 (stereo not drawn) [compound 601] | 3.33[a]

Same assay, conditions: HPLC on reversed phase columns, method [a]: pH 2.7, 0.1% formic acid in water and acetonitrile, linear gradient 10% to 95% acetonitrile

Row | SMILES | log P
27 | CSc1cc(CNC(=O)C2(C)CC(c3ccc4ncc(Br)cc4c3)=NO2)ccn1 (stereo not drawn) [compound 799] | 2.62[a]
28 | C#Cc1cnc2ccc(C3=NOC(C)(C(=O)NCC4(C)CCC4)C3)cc2c1 (stereo not drawn) [compound 753] | 3.27[a]
29 | C#Cc1cnc2ccc(C3=NOC(C)(C(=O)NC4CC(F)(F)C4)C3)cc2c1 (stereo not drawn) [compound 776] | 2.57[a]
30 | C#Cc1cnc2ccc(C3=NOC(C)(C(=O)NCc4cccnc4O)C3)cc2c1 (stereo not drawn) [compound 805] | 1.64[a]
31 | C#Cc1cnc2ccc(C3=NOC(C)(C(=O)NNC(C)C4CC4)C3)cc2c1 (stereo not drawn) [compound 770] | 2.21[a]
32 | C#Cc1cnc2ccc(C3=NOC(C)(C(=O)NC(C)CN(C)C)C3)cc2c1 (stereo not drawn) [compound 701] | 1.42[a]
33 | CC1(C(=O)NCc2cnn(CC(F)(F)F)c2)CC(c2ccc3ncc(Br)cc3c2)=NO1 (stereo not drawn) [compound 777] | 2.60[a]
34 | C#Cc1cnc2ccc(C3=NOC(C)(C(=O)NCc4cc(C(C)C)ccn4)C3)cc2c1 (stereo not drawn) [compound 793] | 1.84[a]
35 | C#Cc1cnc2ccc(C3=NOC(C)(C(=O)NCC4CS(=O)(=O)CCO4)C3)cc2c1 (stereo not drawn) [compound 756] | 1.93[a]
36 | CC1(C(=O)NCc2ccnc(C(F)(F)F)c2)CC(c2ccc3ncc(Br)cc3c2)=NO1 (stereo not drawn) [compound 795] | 2.96[a]
37 | CC1(C(=O)NCc2cncc(F)c2)CC(c2ccc3ncc(Br)cc3c2)=NO1 (stereo not drawn) [compound 784] | 2.37[a]
38 | C#Cc1cnc2ccc(C3=NOC(C)(C(=O)NCc4cncnc4)C3)cc2c1 (stereo not drawn) [compound 697] | 1.74[a]
39 | CCOc1ncccc1CNC(=O)C1(C)CC(c2ccc3ncc(Br)cc3c2)=NO1 (stereo not drawn) [compound 788] | 3.21[a]
40 | C#Cc1cnc2ccc(C3=NOC(C)(C(=O)NCc4cccc(C)n4)C3)cc2c1 (stereo not drawn) [compound 691] | 1.43[a]
41 | C#Cc1cnc2ccc(C3=NOC(C)(C(=O)NCc4cccnc4OC)C3)cc2c1 (stereo not drawn) [compound 680] | 2.52[a]
42 | CN(C)c1cc(CNC(=O)C2(C)CC(c3ccc4ncc(Br)cc4c3)=NO2)ccn1 (stereo not drawn) [compound 801] | 1.49[a]

Same assay, conditions: method [a]: HPLC/LC-MS on reversed phase at pH 2.7, 0.1% formic acid in water / acetonitrile, gradient 10% to 95% acetonitrile

Row | SMILES | log P
43 | C#Cc1cnc2ccc(C3=NOC(C)(C(=O)NC(C)CCCCCC)C3)cc2c1 (racemic) [compound 367] | 4.19[a]
44 | CCn1cc(CNC(=O)C2(CC3CC3)CC(c3ccc4ncc(Br)cc4c3)=NO2)c(C)n1 (racemic) [compound 425] | 3.01[a]
45 | Cc1ncsc1CNC(=O)C1(C)CC(c2ccc3ncc(Br)cc3c2)=NO1 (stereo not drawn) [compound 487] | 2.28[a]

Same assay, conditions: method [a]: HPLC/LC-MS on reversed phase at pH 2.7, 0.1% formic acid in water / acetonitrile, linear gradient 10% to 95% acetonitrile

Row | SMILES | log P
46 | CC1(C(=O)NCc2ccc3ccccc3n2)CC(c2ccc3ncc(Br)cc3c2)=NO1 (stereo not drawn) [compound 165] | 2.75^[a]
47 | C#Cc1cnc2ccc(C3=NOC(C)(C(=O)NCc4ccnc(N5CCCC5)c4)C3)cc2c1 (stereo not drawn) [compound 166] | 1.42^[a]
48 | C#Cc1cnc2ccc(C3=NOC(C)(C(=O)NCCc4ccc(Cl)cc4)C3)cc2c1 (stereo not drawn) [compound 210] | 3.25^[a]
49 | CCn1cc(CNC(=O)C2(C)CC(c3ccc4ncc(-c5cccs5)cc4c3)=NO2)c(C)n1 (stereo not drawn) [compound 142] | 2.63^[a]
50 | CC1(C(=O)NCc2ccc3c(c2)OCC3)CC(c2ccc3ncc(Br)cc3c2)=NO1 (stereo not drawn) [compound 123] | 3.17^[a]
51 | Cc1cc2cc(CNC(=O)C3(C)CC(c4ccc5ncc(Br)cc5c4)=NO3)ccc2[nH]1 (stereo not drawn) [compound 114] | 3.17^[a]
52 | CC1(C(=O)NCC[Si](C)(C)C)CC(c2ccc3ncc(Br)cc3c2)=NO1 (stereo not drawn) [compound 228] | 4.14^[a]
53 | CC1(C(=O)NCc2cccnc2)CC(c2ccc3ncc(Br)cc3c2)=NO1 (stereo not drawn) [compound 92] | 1.41^[a]
54 | CCCCC1(C(=O)NCc2cn(CC)nc2C)CC(c2ccc3ncc(Br)cc3c2)=NO1 (stereo not drawn) [compound 72] | 3.37^[a]

Same assay, conditions: method [a]: HPLC/LC-MS on reversed phase at pH 2.7, 0.1% formic acid in water and acetonitrile, linear gradient 10% to 95% acetonitrile

Row | SMILES | Log P
55 | CCC(C)NC(=O)C1(C(F)(F)F)CC(c2cc3cc(Br)cnc3c(F)c2F)=NO1 (stereo not drawn) [compound 15] | 4.04^[a]
56 | CC1(C(=O)NC2CC2)CC(c2ccc3ncccc3c2)=NO1 (stereo not drawn) [compound 3] | 1.04^[a]

Same assay, conditions: pH 2.7

Row | SMILES | chromatographic logP
57 | COC(=O)C1(C)CC(c2ccc3ncc(I)cc3c2)=NO1 (stereo not drawn) [Compound No. 11-30] | 2.71
